One molecule from patent US20080317769A1, “Vaccine Composition Comprising Alpha-Galactosylceramide as an Adjuvant For Intranasal Administration” (priority 2005, published 2008) can be followed below.

One assay has as its system IFN-γ and IL-4 secretion. Briefly: IFN-γ and IL-4 secretion of spleen and CLN cells cultured with OVA (sandwich ELISA), C57BL/6 mice. It counts as in vivo. Conditions: cells cultured with 500 μg/ml OVA for 4 days, one week after final immunization. As for the experimental part: It was directly investigated whether α-GalCer nasal vaccine adjuvant skews immune response into Th1 or Th2 immune response. To measure the secretions of cytokines, cells were obtained from spleen and cervical lymph node (CLN) a week after the final immunization. The cells ([…]) were cultured with 500 μg/ml of OVA for 4 days. The secretions of IFN-γ and IL-4 in the culture supernatant were measured by using the mouse IFN-γ and IL-4 OptELA set ELISA kit (BD Pharmigen) according to the manufacturer's instruction.
In general terms: In an ELISA, binding on a coated surface is turned into a signal by an enzyme label.

Assay [1] deals with OVA-specific antibody responses. As to the kind of experiment: OVA-specific antibody responses after intranasal co-administration of OVA and αGalCer, Balb/c mice. In kind it is in vivo. As for the experimental part: To investigate whether αGalCer can be used as a strong adjuvant for a nasal vaccine in Balb/c mice, different amounts of αGalCer (0.15, 0.5, 2.0 μg) and 100 μg of OVA were intranasally administered to Balb/c mice by the same manner as described in Example 1, followed by measurement of OVA-specific IgG, OVA-specific IgG1 and IgG2a in serum and OVA-specific IgA responses in the nasal wash and the lung wash.

The subject of assay [2] is PR8 HA-specific antibody responses. Details: species or system Balb/c mice. Conditions: mouse, in vivo.
Assay [3] has as its system IFN-γ-producing CD8+ T cells. Briefly: IFN-γ-producing CD8+ T cells after β-galactosidase stimulation of spleen cells (Ad-LacZ immunization). It counts as in vivo. The note with it: Balb/c mice; Ad-LacZ + 0.125 μg αGalCer intranasal; spleen cells stimulated with 2.5 μg/mL β-galactosidase for 5 days. As for the experimental part: Balb/c mice were immunized with 10^6 pfu of replication-deficient live adenovirus harboring beta-galactosidase gene (Ad-LacZ) (Viromed, Korea) alone or together with 0.125 μg of αGalCer by the intranasal administration, two times at two-week intervals. One week after the final immunization, the nasal wash, the lung wash and serum were separated, by the same manner as described in Example 1, to measure β-galactosidase-specific antibody response. In addition, to measure CTL activity, spleen cells were stimulated by 2.5 μg/mL of β-galactosidase for 5 days and IFN-γ-producing CD8+ T cells were examined by intracellular cytokine staining according to the procedure as described in Example <4-2>.

The target in a further assay is T1, CD1d (Mus musculus, UniProt P11609).
T1 construct: host or cells: antigen presenting cells of living C57BL/6 mice (in vivo)
T1 sequence (P11609 22-336): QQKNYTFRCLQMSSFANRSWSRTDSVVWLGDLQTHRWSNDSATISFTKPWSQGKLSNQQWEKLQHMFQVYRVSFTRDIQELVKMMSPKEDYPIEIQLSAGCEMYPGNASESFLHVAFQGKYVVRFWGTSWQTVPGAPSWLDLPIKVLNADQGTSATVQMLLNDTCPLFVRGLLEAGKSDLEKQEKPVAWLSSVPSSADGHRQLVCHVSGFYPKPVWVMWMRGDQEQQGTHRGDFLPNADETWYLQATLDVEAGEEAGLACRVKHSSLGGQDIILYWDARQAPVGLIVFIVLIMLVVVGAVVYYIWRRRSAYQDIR
T1 sequence (P01887 21-119 partner): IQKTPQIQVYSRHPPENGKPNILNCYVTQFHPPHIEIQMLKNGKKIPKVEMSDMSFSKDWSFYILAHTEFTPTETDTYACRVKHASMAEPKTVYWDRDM
Briefly: Systemic IgG and in vivo CTL activity in wild type versus CD1d−/− C57BL/6 mice. Conditions: CD1d−/− vs wild type C57BL/6 mice; OVA + αGalCer intranasal three times at one-week intervals. As for the experimental part:
To investigate whether the immune responses induced by αGalCer were mediated by CD1d, NKT deficient (resulted from the lack of CD1d) CD1d−/− C57BL/6 mice (Charles River Lab., Orient Co. Ltd., Korea) were used for the experiment (Park et al., J. Exp. Med., 193: 893, 2001). On the first week of the final intranasal administration, systemic IgG level in serum and in vivo CTL activity were measured in both wild type and CD1d−/− C57BL/6 mice by the same manner as described in Example 1 and Example 3.

In another assay the test system is live PR8 virus. As to the kind of experiment: Plaque assay of live PR8 virus in the lung wash after 20 LD50 challenge. It counts as in vivo. The note with it: Balb/c mice; 10 μg inactivated PR8 + αGalCer intranasal; three days after 20 LD50 live PR8. As for the experimental part:
To examine the role of αGalCer as an adjuvant of a killed virus, influenza virus A/PR/8/34 (PR8), which was inactivated with formalin, was used as an antigen to examine the anti-virus immune response. Balb/c mice were immunized with indicated amounts (1 μg, 10 μg) of inactivated PR8 alone or together with αGalCer by the intranasal administration twice at two-week intervals. Two weeks after the final immunization, the mice were sacrificed and following experiments were performed.
Immunized mice were infected with 20 LD50 of live PR8 virus and sacrificed three days later to obtain the lung wash. The amounts of live PR8 virus in the lung wash were measured by plaque assay. Particularly, MDCK cells (purchased from ATCC) were cultured in a 6 well plate at the density of 95-100%. The lung wash was 10-fold diluted by using a medium serially, which was added to the plate, followed by infection for one hour. Then, the lung wash was eliminated. An agarose containing medium was added thereto, followed by further culture in a CO2 incubator for 2-3 days. The numbers of plaques formed therein were counted with the naked eye.

The mark [4] stands for this setting: αGalCer (0.15, 0.5, 2.0 μg) + 100 μg OVA intranasal, vs vehicle alone or OVA alone.

For the molecule `CCCCCCCCCCCCCCCCCCCCCCCCCC(=O)N[C@@H](CO[C@H]1O[C@H](CO)[C@H](O)[C@H](O)[C@H]1O)[C@H](O)[C@H](O)CCCCCCCCCCCCCC` [αGalCer, alpha-galactosylceramide], the “secretions of IFN-γ and IL-4 in spleen and CLN” value in the assay on IFN-γ and IL-4 secretion is “significantly increased”. For the same molecule, in assay [1] (0.5 μg of αGalCer intranasally coadministered with OVA), the “IgG antibody level in serum, comparison of αGalCer doses” value is given as “highest level of IgG antibody”. In addition, in assay [1] (setting [4]), the “OVA-specific IgA responses in the nasal wash and the lung wash” value was “higher OVA-specific IgA responses”; the “OVA-specific IgG response in serum” value is reported as “higher OVA-specific IgG response”. Further, the “OVA-specific IgG1 and IgG2a titers” value in assay [1] (αGalCer + OVA intranasal, serum) is “increases”. Also, the “PR8 HA-specific IgG antibody in serum” value in assay [2] was “high level”. Further, in assay [3], the “numbers of IFN-γ-producing CD8+ T cells” value is on record as “significant increase”. In addition, at CD1d, the “CTL lytic activity in draining lymph node and systemic lymphoid organs of CD1d−/− mice” value is recorded as “inhibited”; the “systemic IgG antibody response in CD1d−/− mice” value is “significantly inhibited”. Further, in the assay with live PR8 virus, the “plaques of live PR8 virus in the lung wash” value is recorded as “no plaque was observed”.
